Measurements as given in ChEMBL document CHEMBL1201862, “PubChem BioAssay data set” (2004).
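All cell lines were grown in 96-well plates and treated with compound for 48 hours. Here, GI50 denotes the concentration required for 50% inhibition of growth.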 Active and inactive are the calls of the source. Rule as the data show it: active = GI50 up to about 1.1 µM and inactive = higher.

Assays:
Assay in all cases: DTP human tumour cell line panel, 48 h
[1] = system: 786-0
[2] = system: A498
[3] = system: A549
[4] = system: ACHN
[5] = system: BT-549
[6] = system: CCRF-CEM
[7] = system: COLO 205
[8] = system: DU-145
[9] = system: EKVX
[10] = system: HCC 2998
[11] = system: HCT-116
[12] = system: HCT-15
[13] = system: HL-60
[14] = system: HOP-62
[15] = system: HOP-92
[16] = system: HT-29
[17] = system: Hs-578T
[18] = system: IGROV-1
[19] = system: K562
[20] = system: KM12
[21] = system: LOX IMVI
[22] = system: M14
[23] = system: MDA-MB-435
[24] = system: MDA-N
[25] = system: MOLT-4
[26] = system: Malme-3M
[27] = system: NCI-H226
[28] = system: NCI-H460
[29] = system: NCI-H522
[30] = system: NCI/ADR-RES
[31] = system: OVCAR-3
[32] = system: OVCAR-4
[33] = system: OVCAR-5
[34] = system: OVCAR-8
[35] = system: PC-3
[36] = system: RPMI-8226
[37] = system: RXF 393
[38] = system: SF-268
[39] = system: SF-295
[40] = system: SF-539
[41] = system: SK-MEL-28
[42] = system: SK-MEL-2
[43] = system: SK-MEL-5
[44] = system: SK-OV-3
[45] = system: SN12C
[46] = system: SNB-19
[47] = system: SNB-75
[48] = system: SR
[49] = system: SW-620
[50] = system: T47D
[51] = system: TK-10
[52] = system: U-251
[53] = system: UACC-257
[54] = system: UACC-62
[55] = system: UO-31
[56] = system: MCF7
[57] = system: NCI-H23
[58] = system: CAKI-1
[59] = system: MDA-MB-231

CCOC(=O)c1c(N2CCCC2)ncn(-c2ccccc2)c1=S
GI50 [1]: > 100 µM (inactive) | GI50 [2]: > 100 µM (inactive) | GI50 [3]: > 100 µM (inactive) | GI50 [4]: > 100 µM (inactive) | GI50 [5]: > 100 µM (inactive) | GI50 [6]: > 100 µM (inactive) | GI50 [7]: > 100 µM (inactive) | GI50 [8]: > 100 µM (inactive) | GI50 [9]: > 100 µM (inactive) | GI50 [10]: > 100 µM (inactive) | GI50 [11]: > 100 µM (inactive) | GI50 [12]: > 100 µM | GI50 [13]: > 100 µM (inactive) | GI50 [14]: > 100 µM (inactive) | GI50 [15]: > 100 µM (inactive) | GI50 [16]: > 100 µM (inactive) | GI50 [17]: > 100 µM (inactive) | GI50 [18]: > 100 µM (inactive) | GI50 [19]: > 100 µM (inactive) | GI50 [20]: > 100 µM (inactive) | GI50 [21]: > 100 µM (inactive) | GI50 [22]: > 100 µM (inactive) | GI50 [23]: > 100 µM (inactive) | GI50 [24]: > 100 µM (inactive) | GI50 [25]: > 100 µM (inactive) | GI50 [26]: 57.5 µM (inactive) | GI50 [27]: > 100 µM (inactive) | GI50 [28]: > 100 µM (inactive) | GI50 [29]: > 100 µM (inactive) | GI50 [30]: > 100 µM (inactive) | GI50 [31]: 49.4 µM (inactive) | GI50 [32]: > 100 µM (inactive) | GI50 [33]: > 100 µM (inactive) | GI50 [34]: > 100 µM (inactive) | GI50 [35]: > 100 µM (inactive) | GI50 [36]: > 100 µM (inactive) | GI50 [37]: > 100 µM (inactive) | GI50 [38]: 28.4 µM (inactive) | GI50 [39]: > 100 µM (inactive) | GI50 [40]: > 100 µM (inactive) | GI50 [41]: > 100 µM (inactive) | GI50 [42]: > 100 µM (inactive) | GI50 [43]: > 100 µM (inactive) | GI50 [44]: > 100 µM (inactive) | GI50 [45]: > 100 µM (inactive) | GI50 [46]: > 100 µM (inactive) | GI50 [47]: > 100 µM (inactive) | GI50 [48]: > 100 µM (inactive) | GI50 [49]: > 100 µM (inactive) | GI50 [50]: > 100 µM (inactive) | GI50 [51]: > 100 µM (inactive) | GI50 [52]: > 100 µM (inactive) | GI50 [53]: > 100 µM (inactive) | GI50 [54]: > 100 µM (inactive) | GI50 [55]: > 100 µM (inactive)

CC(C)(C)OC(=O)NCCC(N)=S
GI50 [1]: > 100 µM (inactive) | GI50 [2]: > 100 µM (inactive) | GI50 [3]: > 100 µM (inactive) | GI50 [4]: > 100 µM (inactive) | GI50 [5]: > 100 µM (inactive) | GI50 [6]: 57.5 µM (inactive) | GI50 [7]: > 100 µM (inactive) | GI50 [8]: > 100 µM (inactive) | GI50 [9]: > 100 µM (inactive) | GI50 [11]: > 100 µM (inactive) | GI50 [12]: > 100 µM | GI50 [13]: > 100 µM (inactive) | GI50 [14]: > 100 µM (inactive) | GI50 [15]: > 100 µM (inactive) | GI50 [16]: > 100 µM (inactive) | GI50 [17]: > 100 µM (inactive) | GI50 [18]: > 100 µM (inactive) | GI50 [19]: > 100 µM (inactive) | GI50 [20]: > 100 µM (inactive) | GI50 [22]: > 100 µM (inactive) | GI50 [56]: > 100 µM (inactive) | GI50 [23]: > 100 µM (inactive) | GI50 [24]: > 100 µM (inactive) | GI50 [25]: > 100 µM (inactive) | GI50 [26]: > 100 µM (inactive) | GI50 [27]: > 100 µM (inactive) | GI50 [57]: > 100 µM (inactive) | GI50 [28]: > 100 µM (inactive) | GI50 [30]: > 100 µM (inactive) | GI50 [31]: > 100 µM (inactive) | GI50 [33]: > 100 µM (inactive) | GI50 [34]: > 100 µM (inactive) | GI50 [35]: > 100 µM (inactive) | GI50 [36]: > 100 µM (inactive) | GI50 [37]: > 100 µM (inactive) | GI50 [38]: > 100 µM (inactive) | GI50 [39]: > 100 µM (inactive) | GI50 [40]: > 100 µM (inactive) | GI50 [41]: > 100 µM (inactive) | GI50 [43]: > 100 µM (inactive) | GI50 [44]: > 100 µM (inactive) | GI50 [45]: > 100 µM (inactive) | GI50 [46]: > 100 µM (inactive) | GI50 [47]: > 100 µM (inactive) | GI50 [48]: > 100 µM (inactive) | GI50 [49]: > 100 µM (inactive) | GI50 [50]: > 100 µM (inactive) | GI50 [51]: > 100 µM (inactive) | GI50 [52]: > 100 µM (inactive) | GI50 [53]: > 100 µM (inactive) | GI50 [54]: > 100 µM (inactive) | GI50 [55]: > 100 µM (inactive)

NCCCN(CCCCN(CCCN)C(=O)OCc1ccccc1)C(=O)OCc1ccccc1
GI50 [1]: > 100 µM (inactive) | GI50 [2]: > 100 µM (inactive) | GI50 [3]: > 100 µM (inactive) | GI50 [4]: > 100 µM (inactive) | GI50 [5]: > 100 µM (inactive) | GI50 [58]: > 100 µM (inactive) | GI50 [6]: 47 µM (inactive) | GI50 [7]: > 100 µM (inactive) | GI50 [8]: > 100 µM (inactive) | GI50 [9]: > 100 µM (inactive) | GI50 [10]: 50 µM (inactive) | GI50 [11]: > 100 µM (inactive) | GI50 [12]: > 100 µM | GI50 [13]: 29.8 µM (inactive) | GI50 [14]: > 100 µM (inactive) | GI50 [15]: 29.9 µM (inactive) | GI50 [16]: > 100 µM (inactive) | GI50 [17]: 20.6 µM (inactive) | GI50 [18]: 24.2 µM (inactive) | GI50 [19]: 37.9 µM (inactive) | GI50 [20]: > 100 µM (inactive) | GI50 [21]: 39.8 µM (inactive) | GI50 [22]: > 100 µM (inactive) | GI50 [56]: 30.9 µM (inactive) | GI50 [59]: 35.6 µM (inactive) | GI50 [23]: > 100 µM (inactive) | GI50 [25]: 47.9 µM (inactive) | GI50 [27]: > 100 µM (inactive) | GI50 [57]: > 100 µM (inactive) | GI50 [28]: 88.9 µM (inactive) | GI50 [29]: 28.5 µM (inactive) | GI50 [30]: > 100 µM (inactive) | GI50 [31]: 43.2 µM (inactive) | GI50 [32]: > 100 µM (inactive) | GI50 [33]: > 100 µM (inactive) | GI50 [34]: > 100 µM (inactive) | GI50 [35]: 45.8 µM (inactive) | GI50 [36]: 73.3 µM (inactive) | GI50 [37]: 98.6 µM (inactive) | GI50 [38]: 35.3 µM (inactive) | GI50 [39]: > 100 µM (inactive) | GI50 [40]: > 100 µM (inactive) | GI50 [41]: > 100 µM (inactive) | GI50 [42]: > 100 µM (inactive) | GI50 [43]: > 100 µM (inactive) | GI50 [44]: > 100 µM (inactive) | GI50 [45]: > 100 µM (inactive) | GI50 [46]: 81.8 µM (inactive) | GI50 [47]: 56.8 µM (inactive) | GI50 [49]: > 100 µM (inactive) | GI50 [50]: > 100 µM (inactive) | GI50 [51]: > 100 µM (inactive) | GI50 [52]: > 100 µM (inactive) | GI50 [53]: 93.5 µM (inactive) | GI50 [54]: 71.4 µM (inactive) | GI50 [55]: > 100 µM (inactive)
